Key:
[1] = system: human colon cancer cell line (Co-3); experiment: Co-3 xenograft in nude mice, relative tumor volume; FTD/TPI oral Days 1 to 14, panitumumab into abdominal cavity twice a week for two weeks; format: in vivo
Experimental: (§1) A human colon cancer cell line (Co-3) was transplanted onto the right chest of a five to six week-old BALB/cA Jcl-nu mouse. The length (mm) and the breadth (mm) of the tumor after the tumor transplantation were measured, and the tumor volume (TV) was calculated. Then, the mouse was allocated into each group such that the average TV in each group was equal, and the day when the grouping (n=6) was implemented was assumed to be Day 0.
(§2) The administration dose of the drug was 10 mL/kg, and the FTD/TPI combination drug (a mixture of FTD and TPI at the molar ratio of 1:0.5) was prepared to be 150 mg/kg/day as the dose of FTD. Panitumumab (Vectibix (registered trademark) injection, Amgen Inc.) was prepared to be 0.30, 0.89, 2.7 and 8 mg/kg/day. The FTD/TPI combination drug was orally administered on Days 1 to 14 every day, and panitumumab was administered into the abdominal cavity for two weeks at a frequency of twice a week from Day 1. To the combination-treated group, the FTD/TPI combination drug and panitumumab were administered in the same doses and the same administration schedules as those of the single agent-treated group.
[…] The chronological changes of RTV were compared of no treatment group (control), the FTD/TPI combination drug-treated group, the panitumumab-treated group and the combination FTD/TPI combination drug and panitumumab treated group. In addition, the weight loss as the toxicity was evaluated.

[2] = Body weight change of Co-3-bearing nude mice, panitumumab study (toxicity); format: in vivo, mouse
Experimental: as §1, §2
As an index of the antitumor effect, TV on Days 5, 8, 12 and 15 was calculated in each group, and the relative tumor volume (RTV) for Day 0 was obtained according to the formula of Example 1 and plotted. The chronological changes of RTV were compared of no treatment group (control), the FTD/TPI combination drug-treated group, the panitumumab-treated group and the combination FTD/TPI combination drug and panitumumab treated group. In addition, the weight loss as the toxicity was evaluated.

[3] = system: human colon cancer cell line (KM20C); experiment: KM20C xenograft in nude mice, relative tumor volume; FTD/TPI oral Days 1 to 14, bevacizumab into abdominal cavity twice a week for two weeks; format: in vivo
Experimental: as §1, with “(KM20C)” for “(Co-3)”, “(n=6 to 7)” for “(n=6)”
(§3) The administration dose of the drug was 10 mL/kg, and the FTD/TPI combination drug (a mixture of FTD and TPI at a molar ratio of 1:0.5) was prepared to be 150 mg/kg/day as the dose of FTD.
(§4) As an index of the antitumor effect, the TV in each group was calculated, and the relative tumor volume (RTV) for Day 0 was obtained from the equation below and plotted. The chronological changes of RTV were compared among no treatment group (control), an FTD/TPI combination drug-treated group, a bevacizumab-treated group, and a FTD/TPI combination drug and bevacizumab combination-treated group. In addition, the weight loss as the toxicity was evaluated. TV(mm^3)=(length×breadth^2)/2 RTV=(TV on evaluation day)/(TV on Day 0)

[4] = Body weight change of MC-2-bearing nude mice (toxicity); format: in vivo, mouse; conditions: MC-2, Day 15, dose 1.5 mg/kg/day
Experimental: as §1, with “(KM20C)” for “(Co-3)”, “(n=6 to 7)” for “(n=6)”
as §4
(§5) Next, a test was performed in the same manner using a human breast cancer cell line (MC-2).

[5] = system: human breast cancer cell line (MC-2); experiment: MC-2 xenograft in nude mice, relative tumor volume and days till RTV reached 2; FTD/TPI and bevacizumab; format: in vivo
Experimental: as §1, with “(KM20C)” for “(Co-3)”, “(n=6 to 7)” for “(n=6)”
as §4, §5
With respect to the time period during which the tumor volume doubled from Day 0 (namely, RTV becomes 2), the results of the combination-treated group were predicted from the single agent-treated group of FIGS. 5 and 6. The “length of days till RTV actually reached 2” was calculated under the assumption that RTV on the measurement day when RTV firstly exceeded 2 changes according to a linear function from RTV on the measurement day immediately before the day.

[6] = Body weight change of KM20C-bearing nude mice (toxicity); format: in vivo, mouse
Experimental: as §1, with “(KM20C)” for “(Co-3)”, “(n=6 to 7)” for “(n=6)”
as §3
As an index of the antitumor effect, the TV in each group was calculated, and the relative tumor volume (RTV) for Day 0 was obtained from the equation below and plotted. […] In addition, the weight loss as the toxicity was evaluated. TV(mm^3)=(length×breadth^2)/2 RTV=(TV on evaluation day)/(TV on Day 0)

[7] = Co-3, Day 29, dose 0.30 mg/kg/day
[8] = Co-3, Day 29, dose 0.89 mg/kg/day
[9] = Co-3, Day 29, dose 2.7 mg/kg/day
[10] = MC-2, Day 15, dose 1.5 mg/kg/day

Substance: Panitumumab: anti-EGFR human-type fully monoclonal antibody (Vectibix injection, Amgen Inc.)
- IR (%) tumor growth inhibition rate [1, 7]: 23.0%
- RTV (mean ± SD) [1, 7]: 18.15 ± 6.79
- IR (%) tumor growth inhibition rate [1, 8]: 35.9%
- RTV (mean ± SD) [1, 8]: 15.10 ± 7.51
- IR (%) tumor growth inhibition rate [1, 9]: 46.1%
- RTV (mean ± SD) [1, 9]: 12.71 ± 4.37
- IR (%) tumor growth inhibition rate ([1]; Co-3, Day 29, dose 8 mg/kg/day): 45.0%
- RTV (mean ± SD) ([1]; Co-3, Day 29, dose 8 mg/kg/day): 12.97 ± 2.33
- Body weight change (%, mean ± SD) [2, 7]: −11.3 ± 5.3%
- Body weight change (%, mean ± SD) [2, 8]: −6.7 ± 4.3%
- Body weight change (%, mean ± SD) [2, 9]: −1.2 ± 3.1%
- Body weight change (%, mean ± SD) ([2]; Co-3, Day 29, dose 8 mg/kg/day): −4.5 ± 4.5%

Substance: Bevacizumab: anti-VEGF humanized monoclonal antibody (Avastin injection, Chugai Pharmaceutical Co., Ltd.)
- IR (%) tumor growth inhibition rate ([3]; Day 29, dose 0.20 mg/kg/day): 34.3%
- RTV (mean ± SD) ([3]; Day 29, dose 0.20 mg/kg/day): 8.93 ± 2.79
- IR (%) tumor growth inhibition rate ([3]; Day 29, dose 0.55 mg/kg/day): 28.5%
- RTV (mean ± SD) ([3]; Day 29, dose 0.55 mg/kg/day): 9.71 ± 4.99
- IR (%) tumor growth inhibition rate ([3]; Day 29, dose 1.7 mg/kg/day): 39.7%
- RTV (mean ± SD) ([3]; Day 29, dose 1.7 mg/kg/day): 8.19 ± 2.29
- IR (%) tumor growth inhibition rate ([3]; Day 29, dose 5 mg/kg/day): 38.6%
- RTV (mean ± SD) ([3]; Day 29, dose 5 mg/kg/day): 8.34 ± 1.82
- Body weight change (%, mean ± SD) [4]: 7.7 ± 3.7%
- IR (%) tumor growth inhibition rate [5, 10]: 41.1%
- RTV (mean ± SD) [5, 10]: 3.06 ± 0.88
- Length of Days (day) till RTV actually reached 2 ([5]; MC-2, single agent, bevacizumab 1.5 mg/kg/day): 7.71 days
- Body weight change (%, mean ± SD) ([6]; Day 29, dose 0.20 mg/kg/day): 9.7 ± 5.1%
- Body weight change (%, mean ± SD) ([6]; Day 29, dose 0.55 mg/kg/day): 3.2 ± 6.0%
- Body weight change (%, mean ± SD) ([6]; Day 29, dose 1.7 mg/kg/day): 5.2 ± 6.7%

From patent US9943537B2, “Antitumor agent and antitumor effect enhancer” (TAIHO PHARMACEUTICAL CO., LTD., priority 2013, dated 2018)
